Data reported in patent US9765075B2, “Substituted bridged urea analogs as sirtuin modulators” (GLAXOSMITHKLINE LLC, priority 2013, dated 2017).
Numbering of substitutions follows the chain as printed. Counter-ions that a name gives are not always drawn.

Legend:
Test in all cases: SIRT1 inhibition assay, OAcADPr mass spectrometry
Assay type in all cases: biochemical
[1] = molecular target: T1, full-length hSIRT1 wild-type (Homo sapiens, UniProt Q96EB6)
T1 construct: Full-length human SIRT1 (hSIRT1) proteins were expressed with a C-terminal His6 tag; His6 (C); made in house
T1 sequence (Q96EB6 1-747): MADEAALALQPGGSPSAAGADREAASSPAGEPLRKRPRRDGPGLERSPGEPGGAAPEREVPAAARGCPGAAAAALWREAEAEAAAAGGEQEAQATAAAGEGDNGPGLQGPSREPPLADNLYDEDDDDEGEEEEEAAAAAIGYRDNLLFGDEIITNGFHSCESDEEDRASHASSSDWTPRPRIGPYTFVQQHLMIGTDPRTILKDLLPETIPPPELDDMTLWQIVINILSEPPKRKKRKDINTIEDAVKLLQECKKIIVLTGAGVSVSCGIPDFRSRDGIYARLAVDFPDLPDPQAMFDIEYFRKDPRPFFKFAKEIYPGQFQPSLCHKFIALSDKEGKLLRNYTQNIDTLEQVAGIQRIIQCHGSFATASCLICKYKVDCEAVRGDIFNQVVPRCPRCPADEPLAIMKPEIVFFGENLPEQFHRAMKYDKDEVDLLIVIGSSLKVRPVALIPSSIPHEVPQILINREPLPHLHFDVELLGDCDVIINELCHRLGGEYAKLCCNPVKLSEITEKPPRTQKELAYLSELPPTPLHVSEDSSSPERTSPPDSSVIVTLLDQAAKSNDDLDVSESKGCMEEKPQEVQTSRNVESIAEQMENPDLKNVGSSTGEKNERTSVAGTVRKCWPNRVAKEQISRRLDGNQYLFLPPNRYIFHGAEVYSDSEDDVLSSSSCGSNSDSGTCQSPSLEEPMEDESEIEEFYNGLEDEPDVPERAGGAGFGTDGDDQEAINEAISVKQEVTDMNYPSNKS
Description: (§1) SIRT1 activation and inhibition assays were run in reaction buffer with 0.05% BSA at 25° C. and analyzed using the OAcADPr assay. Enzyme and compound were pre-incubated for 20 minutes before addition of substrates.

full-length hSIRT1 T219A = molecular target: T2, full-length hSIRT1 T219A (Homo sapiens, UniProt Q96EB6, T219A)
T2 construct: The following point mutants of full-length hSIRT1 were generated; His6 (C); made in house
T2 sequence (Q96EB6 1-747 T219A): T1 sequence (Q96EB6 1-747) with T219A
Description: as §1

full-length hSIRT1 I223A = molecular target: T3, full-length hSIRT1 I223A (Homo sapiens, UniProt Q96EB6, I223A)
T3 construct: The following point mutants of full-length hSIRT1 were generated; His6 (C); made in house
T3 sequence (Q96EB6 1-747 I223A): T1 sequence (Q96EB6 1-747) with I223A
Description: as §1

## CCCC[C@H](NC(=O)[C@H](CC(C)C)NC(=O)[C@H](CCCCNC(=O)C(F)(F)F)NC(=O)[C@H](CCCCN)NC(=O)[C@H](Cc1c[nH]cn1)NC(=O)[C@H](CCCNC(=N)N)NC(C)=O)C(=O)N[C@@H](Cc1ccccc1)C(N)=O [TFA-p53 7-mer, Ac-RHK-K^TFA-L-Nle-F-NH2]
[1]
  IC50: 680 ± 70 nM
full-length hSIRT1 T219A
  IC50: 490 ± 20 nM
full-length hSIRT1 I223A
  IC50: 540 ± 150 nM
